# Data from ChEMBL document CHEMBL5046251, “Discovery of a Series of Pyrimidine Carboxamides as Inhibitors of Vanin-1” (J Med Chem, 2022).
# Activity calls are given as the source filed them. The calls are words filed in the database; no cut-off is given here.
# Assays:
# [1] = system: Mus musculus; assay: Anti-colitis activity against DSS-induced BALB/c mouse model assessed as reduction in disease activity index at 50 mg/kg, po, qd administered for 10 days; type: functional, organism-based; conditions: time 10.0 day
# [2] = AUC in rat at 1 mg/kg, iv measured upto 24 hrs by LC-MS/MS analysis; type: ADME, organism-based; design: route intravenous, dose 1 mg/kg, time <=24; conditions: in vivo
# [3] = Volume of distribution in rat at 1 mg/kg, iv measured upto 24 hrs by LC-MS/MS analysis; type: ADME, organism-based; conditions: in vivo
# [4] = Lipophilicity, log D of the compound in Octanol/buffer by shake-flask method
# [5] = Clearance in rat at 1 mg/kg, iv measured upto 24 hrs by LC-MS/MS analysis; type: ADME, organism-based; conditions: in vivo
# [6] = Half life in rat at 1 mg/kg, iv measured upto 24 hrs by LC-MS/MS analysis; type: ADME, organism-based; conditions: in vivo
# [7] = Intrinsic clearance in human hepatocytes assessed per million cells by relay assay method; type: ADME, cell-based, Hepatocyte
# [8] = Intrinsic clearance in human hepatocytes assessed per million cells; type: ADME, cell-based, Hepatocyte
# [9] = Intrinsic clearance in human liver microsomes; type: ADME, Microsome
# [10] = Apparent permeability across apical to basolateral side in RRCK cells; conditions: dog, MDCK
# [11] = Renal clearance in rat at 1 mg/kg, iv assessed glomerular filtration rate; type: ADME, organism-based; conditions: in vivo
# [12] = AUC in rat at 10 mg/kg, po measured upto 24 hrs by LC-MS/MS analysis; type: ADME, organism-based; design: route oral, dose 10 mg/kg, time <=24; conditions: in vivo
# [13] = Oral bioavailability in rat at 10 mg/kg measured upto 24 hrs by LC-MS/MS analysis; type: ADME, organism-based; conditions: in vivo
# [14] = biological target: T1, Pantetheinase (Mus musculus, UniProt Q9Z0K8); assay: Inhibition of mouse vanin-1
# T1 sequence (Q9Z0K8 whole entry): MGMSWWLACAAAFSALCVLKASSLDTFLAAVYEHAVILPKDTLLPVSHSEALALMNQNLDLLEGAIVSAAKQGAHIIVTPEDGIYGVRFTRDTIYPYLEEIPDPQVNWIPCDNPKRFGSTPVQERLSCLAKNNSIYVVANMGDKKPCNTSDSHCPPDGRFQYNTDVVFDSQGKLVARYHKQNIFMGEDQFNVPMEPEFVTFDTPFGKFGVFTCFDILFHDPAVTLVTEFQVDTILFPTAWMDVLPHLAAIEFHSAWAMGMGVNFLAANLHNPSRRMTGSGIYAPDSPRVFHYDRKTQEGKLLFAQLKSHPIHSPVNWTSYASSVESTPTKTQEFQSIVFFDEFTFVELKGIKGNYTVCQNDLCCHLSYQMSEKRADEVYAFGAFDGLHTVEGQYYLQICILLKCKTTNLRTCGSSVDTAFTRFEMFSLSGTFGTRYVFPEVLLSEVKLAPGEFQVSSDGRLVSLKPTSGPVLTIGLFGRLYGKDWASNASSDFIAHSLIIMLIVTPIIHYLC
# [15] = biological target: T2, Biotinidase (Homo sapiens, UniProt P43251); assay: Inhibition of N-terminal FLAG/His6-tagged human biotinidase expressed in COS cells using biotinyl-7-amino-4-trifluoromethylcoumarin as substrate preincubated for 10 mins followed by substrate addition and measured after 90 mins; type: cell-based
# T2 sequence (P43251 whole entry): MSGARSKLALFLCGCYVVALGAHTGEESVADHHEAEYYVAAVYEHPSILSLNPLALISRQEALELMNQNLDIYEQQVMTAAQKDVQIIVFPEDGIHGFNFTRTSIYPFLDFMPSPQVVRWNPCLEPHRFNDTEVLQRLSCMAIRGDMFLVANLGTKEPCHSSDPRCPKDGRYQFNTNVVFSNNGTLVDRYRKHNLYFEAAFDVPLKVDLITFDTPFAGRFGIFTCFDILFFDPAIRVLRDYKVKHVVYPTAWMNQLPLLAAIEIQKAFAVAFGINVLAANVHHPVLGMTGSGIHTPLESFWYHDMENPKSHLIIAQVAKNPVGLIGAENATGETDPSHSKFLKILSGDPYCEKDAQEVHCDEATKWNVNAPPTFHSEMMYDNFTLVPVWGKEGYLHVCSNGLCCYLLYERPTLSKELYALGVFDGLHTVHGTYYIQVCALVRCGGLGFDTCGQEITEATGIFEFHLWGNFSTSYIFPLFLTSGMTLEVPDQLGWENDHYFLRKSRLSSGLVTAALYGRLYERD
# [16] = system: Mus musculus; assay: Anti-colitis activity against DSS-induced BALB/c mouse model assessed as increase in body weight at 50 mg/kg, po, qd administered for 10 days; type: functional, organism-based; conditions: time 10.0 day
# [17] = Intrinsic clearance in rat hepatocytes assessed per million cells; type: ADME, cell-based, Hepatocyte
# [18] = AUC in mouse at 10 mg/kg, sc measured upto 24 hrs by LC-MS/MS analysis; type: ADME, organism-based; design: route subcutaneous, dose 10 mg/kg, time <=24; conditions: in vivo
# [19] = Unbound drug concentration in serum of DSS-induced BALB/c mouse colitis model at 50 mg/kg administered for 10 days; type: ADME, organism-based; conditions: in vivo, 240 h, time 10 day
# [20] = Plasma protein binding in human assessed as unbound fraction; type: ADME, cell-free
# [21] = Efflux ratio in human MDR cells; type: ADME, cell-based
# [22] = biological target: T3, Pantetheinase (Homo sapiens, UniProt O95497); assay: Binding affinity to recombinant N-terminal FLAG/His6-tagged human vanin-1 expressed in CHO cells assessed as dissociation constant by surface plasmon resonance analysis
# T3 sequence (O95497 whole entry): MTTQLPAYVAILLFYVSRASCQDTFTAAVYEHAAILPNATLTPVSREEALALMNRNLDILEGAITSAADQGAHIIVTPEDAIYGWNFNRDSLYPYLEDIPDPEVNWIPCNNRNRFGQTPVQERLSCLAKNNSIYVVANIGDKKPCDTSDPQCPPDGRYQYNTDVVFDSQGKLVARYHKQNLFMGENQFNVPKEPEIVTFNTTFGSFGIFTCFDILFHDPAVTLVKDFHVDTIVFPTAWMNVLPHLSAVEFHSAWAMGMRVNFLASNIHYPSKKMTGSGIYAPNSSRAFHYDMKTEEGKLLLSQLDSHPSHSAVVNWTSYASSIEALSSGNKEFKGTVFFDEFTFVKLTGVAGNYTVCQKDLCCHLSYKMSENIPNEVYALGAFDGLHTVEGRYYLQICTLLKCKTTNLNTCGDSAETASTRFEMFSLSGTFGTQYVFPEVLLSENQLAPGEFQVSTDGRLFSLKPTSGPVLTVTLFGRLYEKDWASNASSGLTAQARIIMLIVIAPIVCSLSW
# [23] = Volume of distribution at steady state in rat; type: ADME; conditions: in vivo, read-out: Vdss
# [24] = Clearance in rat; type: ADME; conditions: in vivo
# [25] = biological target: T4, Caspase-2 (Homo sapiens, UniProt P42575); assay: Inhibition of caspase-2 (unknown origin)
# T4 sequence (P42575 whole entry): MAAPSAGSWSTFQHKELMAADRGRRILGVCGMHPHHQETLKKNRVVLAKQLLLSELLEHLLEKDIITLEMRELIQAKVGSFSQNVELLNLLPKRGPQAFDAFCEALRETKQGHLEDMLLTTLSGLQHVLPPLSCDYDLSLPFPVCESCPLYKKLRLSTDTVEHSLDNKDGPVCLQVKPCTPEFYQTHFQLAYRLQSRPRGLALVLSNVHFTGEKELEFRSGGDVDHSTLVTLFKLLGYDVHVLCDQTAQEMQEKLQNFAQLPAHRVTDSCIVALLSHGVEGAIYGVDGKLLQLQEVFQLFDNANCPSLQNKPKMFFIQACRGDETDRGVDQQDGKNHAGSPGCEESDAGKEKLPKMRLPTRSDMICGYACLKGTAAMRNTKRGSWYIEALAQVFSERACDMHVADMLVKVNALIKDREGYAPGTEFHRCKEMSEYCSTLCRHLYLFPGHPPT
# [26] = biological target: T5, Caspase-3 (Homo sapiens, UniProt P42574); assay: Inhibition of caspase-3 (unknown origin)
# T5 sequence (P42574 whole entry): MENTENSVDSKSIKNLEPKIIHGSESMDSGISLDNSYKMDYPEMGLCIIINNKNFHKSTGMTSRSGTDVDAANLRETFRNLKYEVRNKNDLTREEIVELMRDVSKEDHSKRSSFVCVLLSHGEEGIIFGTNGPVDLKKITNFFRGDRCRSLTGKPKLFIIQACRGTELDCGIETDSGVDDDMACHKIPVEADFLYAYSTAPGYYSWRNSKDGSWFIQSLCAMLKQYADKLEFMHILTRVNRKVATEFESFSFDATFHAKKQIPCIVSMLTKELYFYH
# [27] = biological target: T6, Pantetheinase (Homo sapiens) (UniProt O95497); assay: Binding affinity to recombinant N-terminal FLAG/His6-tagged human vanin-1 expressed in CHO cells assessed as binding constant (Kon) by surface plasmon resonance analysis
# T6 sequence (whole entry): T3 sequence (O95497 whole entry)
# [28] = biological target: T3, Pantetheinase; assay: Inhibition of recombinant N-terminal FLAG/His6-tagged human vanin-1 expressed in CHO cells at 10 uM by 1H NMR analysis; type: cell-based
# [29] = Oral bioavailability in rat; type: ADME, organism-based; conditions: in vivo
# [30] = biological target: T7, Caspase-1 (Homo sapiens, UniProt P29466); assay: Inhibition of caspase-1 (unknown origin)
# T7 sequence (P29466 whole entry): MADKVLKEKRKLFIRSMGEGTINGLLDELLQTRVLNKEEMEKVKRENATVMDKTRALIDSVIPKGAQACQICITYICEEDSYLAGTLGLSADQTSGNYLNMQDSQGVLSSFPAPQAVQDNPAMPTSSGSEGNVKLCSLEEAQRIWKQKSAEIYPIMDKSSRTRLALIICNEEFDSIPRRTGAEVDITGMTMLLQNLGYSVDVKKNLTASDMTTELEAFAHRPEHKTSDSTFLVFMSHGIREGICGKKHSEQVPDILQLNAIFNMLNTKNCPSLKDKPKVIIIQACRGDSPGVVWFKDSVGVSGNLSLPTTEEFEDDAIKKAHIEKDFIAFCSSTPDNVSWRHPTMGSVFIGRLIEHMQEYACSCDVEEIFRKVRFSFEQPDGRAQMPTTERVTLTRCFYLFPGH
# [31] = Half life in rat; type: ADME; conditions: in vivo
# [32] = biological target: T6, Pantetheinase (Homo sapiens); assay: Binding affinity to recombinant N-terminal FLAG/His6-tagged human vanin-1 expressed in CHO cells assessed as binding constant (Koff) by surface plasmon resonance analysis
smiles,measurement,setting,value
C[C@H](Nc1ncc(C(=O)N2CCC3(CCOCC3)C2)cn1)c1cnccn1,Activity,[1],Active
same,AUC at 24 h,[2],616 ng·h/mL
same,Vd,[3],0.98 L/kg
same,logD,[4],0.4
same,clearance,[5],30 mL/min/kg
same,half-life,[6],48 min
same,CLint,[7],0.25 µL/min/1e6 cells
same,CLint,[8],< 3 µL/min/1e6 cells
same,Intrinsic clearance,[9],< 8 µL/min/mg
same,Papp A→B,[10],14 ×10⁻⁶ cm/s
same,CL,[11],25%
same,AUC at 24 h,[12],2250 ng·h/mL
same,bioavailability,[13],37%
same,IC50,[14],0.56 nM
same,IC50,[15],2800 nM
same,Activity,[16],Active
same,CLint,[17],6 µL/min/1e6 cells
same,AUC at 24 h,[18],6590 ng·h/mL
same,Ct,[19],2852 nM
O=C(c1cnc(NC2(c3cncnc3)CC2)nc1)N1CCCCC1,fraction unbound,[20],0.00918
same,efflux ratio,[21],3.2
same,Kd,[22],20 nM
same,Vd,[23],1.1 L/kg
same,logD,[4],0.7
same,clearance,[24],88 mL/min/kg
same,CLint,[8],11 µL/min/1e6 cells
same,IC50,[25],> 10000 nM
same,Intrinsic clearance,[9],< 10 µL/min/mg
same,Papp A→B,[10],9.5 ×10⁻⁶ cm/s
same,IC50,[26],> 10000 nM
same,IC50,[14],10.2 nM
same,K,[27],8.1 10^7/M/s
same,IC50,[15],18000 nM
same,IC50,[28],115 nM
same,bioavailability,[29],11%
same,IC50,[30],> 10000 nM
same,CLint,[17],45 µL/min/1e6 cells
same,half-life,[31],9 min
same,K,[32],0.52 s⁻¹
